Measured values published in US6362166B1, “Antipicornaviral compounds and methods for their use and preparation” (Agouron Pharmaceuticals, Inc., priority 1996, dated 2002).
Where two headings read alike, the source gives them in different places.

Assays:
[1] = biological target: T1, Recombinant Rhinovirus 3C protease (RVP) serotype-14 (Human rhinovirus 14, UniProt P03303); assay: Inhibition of Rhinovirus Protease (fluorescence resonance energy transfer assay), serotype 14; format: biochemical, human rhinovirus (HRV); settings: RVP serotype-14; for kobs/I: progress curves in enzyme start experiments
T1 construct: Recombinant Rhinovirus 3C proteases from serotypes 14, 16, 2 or 89; made in house
Description: Stock solution (50 mM, in DMSO) of various compounds were prepared; dilutions were in the same solvent. […] Assays contained 2% DMSO, 50 mM tris pH 7.6, 1 mM EDTA, a compound at the indicated concentrations, approximately 1 μM substrate, and 50-100 nM protease. […] The kobs/I values were obtained from reactions initiated by addition of enzyme rather than substrate. RVP activity is measured in the fluorescence resonance energy transfer assay. […] In the uncleaved peptide, the EDANS fluorescence was quenched by the proximal DABCYL moeity. When the peptide was cleaved, the quenching was relieved, and activity was measured as an increase in fluorescence signal.
In the above table, all data is RVP serotype-14 unless otherwise noted in parentheses. All strains of human rhinovirus (HRV) were purchased from American Type Culture Collection (ATCC), except for serotype 14, which was produced from the infectious cDNA clone constructed and supplied to us by Dr. Roland Rueckert at the Institute for Molecular Virology, University of Wisconsin, Madison, Wisc. […] The data in the column designated kobs/I was measured from progress curves in enzyme start experiments.

HRV-14 = assay: Antirhinoviral HI-HeLa Cell Culture Assay (Cell Protection Assay, XTT dye reduction); format: cell-based, human rhinovirus (HRV) serotype-14; settings: HI-HeLa cells infected with HRV-14, m.o.i. 0.13; two days; XTT; read-out: EC50
Description: In the Cell Protection Assay, the ability of compounds to protect cells against HRV infection was measured by the XTT dye reduction method. This method is described in Weislow, O. S., R. Kiser, D. L. Fine, J. Bader, R. H. Shoemaker, and M. R. Boyd, J. Natl. Cancer Inst. 1989, 81, 577-586, which is incorporated herein by reference.
(§1) HI-HeLa cells were infected with HRV-14 at a multiplicity of infection (m.o.i.) of 0.13 (virus particles/cell) or mock-infected with medium only. Infected or mock-infected cells were resuspended at 8×10^5 cells per mL and incubated with appropriate concentration of compounds of formulas I and II. Two days later, XTT/PMS was added to test plates and the amount of formazan produced was quantified spectrophotometrically at 450/650 nm. […] The therapeutic index (TI) was calculated by dividing the CC50 by the EC50.
(§2) All strains of human rhinovirus (HRV) for use in this assay were purchased from American Type Culture Collection (ATCC), except for HRV serotype-14, which was produced from the infectious cDNA clone, constructed and supplied to us by Dr. Roland Rueckert at the Institue for Molecular Virology, University of Wisconsin, Madison, Wisc. HRV stocks were propagated, and antiviral assays were perforemd in HI-HeLa cells (ATCC). Cells were grwon in Minimal Essential Medium, available from Life Technologies, with 10% fetal bovine serum.
The compounds were tested against control compounds WIN 51711, WIN 52084, and WIN 54954, all obtained from Sterling-Winthrop Pharmaceuticals, and control compound Pirodavir, obtained from Janssen Pharmaceuticals.

HI-HeLa cells = assay: Cytotoxicity in mock-infected HI-HeLa cells (antirhinoviral assay, XTT); format: cell-based
Description: as §1, §2

[2] = mock-infected HI-HeLa cells, two days, XTT, read-out: CC50

T1 sequence (P03303 1538-1719): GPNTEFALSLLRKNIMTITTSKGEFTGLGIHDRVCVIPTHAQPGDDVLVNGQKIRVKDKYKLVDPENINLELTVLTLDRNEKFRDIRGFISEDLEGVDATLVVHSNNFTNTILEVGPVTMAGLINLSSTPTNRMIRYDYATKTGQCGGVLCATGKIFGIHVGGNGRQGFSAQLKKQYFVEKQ

In the case of `CC(C)C[C@H](NC(=O)OCc1ccccc1)C(=O)N[C@@H](Cc1ccccc1)C(=O)N[C@H](/C=C/C=O)CCC(N)=O` [Compound 81], the kobs/I [1] is reported as 124,000 M-1 sec-1, the EC50 (HRV-14) is reported as 8 µM and the CC50 (HI-HeLa cells; [2]) is reported as 112 µM.

`CCOC(=O)/C(C)=C/[C@H](CCC(N)=O)NC(=O)[C@H](Cc1ccccc1)NC(=O)[C@H](CC(C)C)NC(=O)OCc1ccccc1` [Compound 82] was tested, and the Ki ([1]; 10 minute preincubation, substrate start, read-out: INHIB (Ki)) was 26 µM, the kobs/I [1] was 7,300 M-1 sec-1 and the EC50 (HRV-14) was 3 µM. The CC50 (HI-HeLa cells) was over 320 µM.

For `CC(C)C[C@H](NC(=O)OCc1ccccc1)C(=O)N[C@@H](Cc1ccccc1)C(=O)N[C@H](/C=C/C(=O)N1CCCCO1)CCC(N)=O` [Compound 84], the kobs/I [1] was 18,650 M-1 sec-1, the EC50 (HRV-14) was 16 µM and the CC50 (HI-HeLa cells; [2]) was over 320 µM.

`CC(C)C[C@H](NC(=O)OCc1ccccc1)C(=O)N[C@@H](Cc1ccccc1)C(=O)N[C@H](/C=C/C(=O)N1CCc2cc(Cl)ccc21)CCC(N)=O` [Compound 92] gave a kobs/I [1] of 445 M⁻¹ s⁻¹, an EC50 (HRV-14) of 5.6 µM and a CC50 (HI-HeLa cells; [2]) of 56 µM.

Work on `CC(C)C[C@H](NC(=O)OCc1ccccc1)C(=O)N[C@@H](Cc1ccccc1)C(=O)N[C@H](/C=C/C(=O)N1CCc2cccc(S(C)(=O)=O)c21)CCC(N)=O` [Compound 95] yielded a kobs/I [1] of under 1000 M⁻¹ s⁻¹, an EC50 (HRV-14) of over 320 µM and a CC50 (HI-HeLa cells; [2]) of over 320 µM.

For `CSc1cccc2c1N(C(=O)/C=C/[C@H](CCC(N)=O)NC(=O)[C@H](Cc1ccccc1)NC(=O)[C@H](CC(C)C)NC(=O)OCc1ccccc1)CC2` [Compound 96], the kobs/I [1] was 300 M⁻¹ s⁻¹, the EC50 (HRV-14) was 19.1 µM and the CC50 (HI-HeLa cells; [2]) was 100 µM.

`CC(C)C[C@H](NC(=O)OCc1ccccc1)C(=O)N[C@@H](Cc1ccccc1)C(=O)N[C@H](/C=C/C(=O)N1CCc2ccc(S(C)(=O)=O)cc21)CCC(N)=O` [Compound 97] was tested, and the kobs/I [1] was 12,900 M-1 sec-1, the EC50 (HRV-14) was over 320 µM and the CC50 (HI-HeLa cells; [2]) was over 320 µM.

For `CCOC(=O)/C=C/[C@H](CCC(N)=O)NC(=O)CNC(=O)[C@H](CC(C)C)NC(=O)OCc1ccccc1` [Compound 99], the “INHIB (percent inhibition)” value ([1]; 10 minute preincubation with 50 nM RVP) was 10 (50) percent, the EC50 (HRV-14) was 141 µM and the CC50 (HI-HeLa cells) was over 320 µM.

`CCOC(=O)/C=C/[C@H](CCC(N)=O)NC(=O)[C@H](Cc1ccc(OC(C)=O)cc1)NC(=O)[C@H](CC(C)C)NC(=O)OCc1ccccc1` [Compound 100] was tested, and the kobs/I [1] was 1,200 M-1 sec-1, the EC50 (HRV-14) was 11.1 µM and the CC50 (HI-HeLa cells; [2]) was over 320 µM.

With `CCOC(=O)/C=C/[C@H](CCC(N)=O)NC(=O)[C@H](Cc1ccccc1)NC(=O)[C@H](C)NC(=O)OCc1ccccc1` [Compound 101] the kobs/I [1] was 11,288 M-1 sec-1, the EC50 (HRV-14) was 2 µM and the CC50 (HI-HeLa cells; [2]) was over 320 µM.

For `CCOC(=O)/C=C/[C@H](CCC(N)=O)NC(=O)[C@H](Cc1ccc(OP(=O)(O)O)cc1)NC(=O)[C@H](CC(C)C)NC(=O)OCc1ccccc1` [Compound 105], the kobs/I [1] was 1,200 M-1 sec-1, the EC50 (HRV-14) was 14 µM and the CC50 (HI-HeLa cells; [2]) was over 320 µM.

`CCOC(=O)/C=C/[C@H](CCC(N)=O)NC(=O)[C@H](CC)NC(=O)[C@H](CC(C)C)NC(=O)OCc1ccccc1` [Compound 108] was tested, and the kobs/I [1] was 4,694 M-1 sec-1, the EC50 (HRV-14) was 6 µM and the CC50 (HI-HeLa cells) was over 320 µM.

`CCOC(=O)/C=C/[C@H](CCC(N)=O)NC(=O)[C@H](C)NC(=O)[C@H](CC(C)C)NC(=O)OCc1ccccc1` [Compound 109] was tested, and the kobs/I [1] was 1,348 M-1 sec-1, the EC50 (HRV-14) was 20 µM and the CC50 (HI-HeLa cells) was over 320 µM.

In the case of `CCOC(=O)/C=C/[C@H](CCC(N)=O)NC(=O)[C@H](Cc1ccccc1)NC(=O)[C@H](CC(C)C)NC(=O)OC` [Compound 110], the kobs/I [1] is reported as 9,072 M-1 sec-1, the EC50 (HRV-14) is reported as 1.3 µM and the CC50 (HI-HeLa cells) is reported as over 320 µM.

`CCOC(=O)/C=C/[C@H](CCC(N)=O)NC(=O)[C@H](Cc1ccccc1)NC(=O)[C@H](CC(C)C)NC(=O)C1CCCC1` [Compound 116] was tested, and the kobs/I [1] was 23,670 M-1 sec-1, the EC50 (HRV-14) was 0.6 µM and the CC50 (HI-HeLa cells) was over 320 µM.
